The term Ki denotes a measure of affinity in units of concentration, obtained from inhibition or displacement.

This assay deals with T1, PMN LTB4 receptor (Homo sapiens, UniProt Q15722).
T1 construct: endogenous in cells; host or cells: neutrophils (PMN) isolated from heparinized blood by ficoll gradient and dextran sedimentation
In words: LTB4 Human Neutrophil (PMN) Binding Assay. The conditions noted are these: read-out: Ki, affinity for LTB4 (receptor). The source says: LTB4 Human Neutrophil (PMN) Binding Assay
LTB4 for the PMN LTB4 receptor.

T1 sequence (Q15722 whole entry): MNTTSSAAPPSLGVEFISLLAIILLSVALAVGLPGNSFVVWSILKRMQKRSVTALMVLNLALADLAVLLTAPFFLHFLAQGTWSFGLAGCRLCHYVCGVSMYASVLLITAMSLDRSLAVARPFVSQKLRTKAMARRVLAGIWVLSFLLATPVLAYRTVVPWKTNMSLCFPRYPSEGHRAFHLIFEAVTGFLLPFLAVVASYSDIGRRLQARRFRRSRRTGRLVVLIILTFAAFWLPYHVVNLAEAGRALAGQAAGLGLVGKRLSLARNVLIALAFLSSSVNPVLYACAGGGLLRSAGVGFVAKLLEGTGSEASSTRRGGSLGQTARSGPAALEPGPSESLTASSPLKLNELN

As to `O=C(CCCCCOc1cc(-c2ccc3c(c2)OCO3)cc(-c2ccccc2)n1)NC(Cc1ccc(O)cc1)C(=O)O` (stereo not drawn) [Compound III], the Ki is 41 nM.

On to `CCc1cc(-c2ccc(F)cc2)c(O)cc1OCCCCC(C)(C)CNC(=O)c1ccc(N/N=C/c2ccccc2)nc1` [IIa], for which the Ki stood at 8 nM. For `O=C(CCCCCOc1cc(-c2ccc3c(c2)OCO3)cc(-c2ccccc2)n1)NC(Cc1ccc(OCCCNC(=O)c2ccc(N/N=C/c3ccccc3S(=O)(=O)O)nc2)cc1)C(=O)O` (stereo not drawn) [Reagent IV] the value was 52 nM.
